{
  "source": "patent US11246929B2",
  "about": "“Combination of a protein kinase inhibitor and an additional chemotherapeutic agent” (Merck Patent GmbH, priority 2016, dated 2022)",
  "key": {"[1]": {"system": "resting, non-proliferating PBMC", "experiment": "Single agent activity, panel of 81 cancer cell lines plus PBMC", "format": "cell-based"}, "[2]": {"system": "NCI-H460 (lung, large cell) xenograft", "experiment": "Xenograft, fractionated IR plus Compound 1, time to TV400%", "format": "in vivo, mouse", "description": "(§1) The therapeutic relevance of DNA-PK inhibition by Compound 1 was investigated in vivo in combination with ionizing radiation (IR), a clinically established DSB-inducing treatment. Compound 1 was tested for activity in six xenograft mouse models of human cancer. The models were chosen from different cancer indications (colon, lung, head and neck, pancreatic), and histological subtypes (adeno, squamous, large cell). Ionizing radiation was administered using a fractionated schedule of 2 Gy per day administered over five consecutive days (total radiation dose=10 Gy). Compound 1 was given orally 10 min prior to each fraction of radiation (ONC397-1-2AZ, ONC397-1-3AZ, ONC397-1-4AZ, ONC397-1-5AZ, ONC397-1-8AZ).\n(§2) Radiotherapy enhancing effect of Compound 1 was quantified across the tested models by the time to reaching 400% initial volume for the 150 mg/kg study arms. The resulting Kaplan-Meier plots were compared by the log-rank test."}, "[3]": {"system": "Capan-1 (pancreas, adeno) xenograft", "experiment": "Xenograft, fractionated IR plus Compound 1, time to TV400%", "format": "in vivo, mouse", "description": "as §1, §2"}, "[4]": {"system": "HCT116 (colon, adeno) xenograft", "experiment": "Xenograft, fractionated IR plus Compound 1, time to TV400%", "format": "in vivo, mouse", "description": "as §1, §2"}, "[5]": {"system": "A549 (lung, adeno) xenograft", "experiment": "Xenograft, fractionated IR plus Compound 1, time to TV400%", "format": "in vivo, mouse", "description": "as §1, §2"}, "[6]": {"system": "BxPC3 (pancreas, adeno) xenograft", "experiment": "Xenograft, fractionated IR plus Compound 1, time to TV400%", "format": "in vivo, mouse", "description": "as §1, §2"}, "[7]": {"system": "LoVo colon carcinoma xenografts", "experiment": "Single agent efficacy, ATM pathway deficient LoVo xenograft", "format": "in vivo, mouse", "excerpt": "We tested the effect of Compound 1 on the growth of established LoVo colon carcinoma xenografts that are known to be deficient in ATM pathway function due to mutation in the MRE11 protein."}, "[8]": {"system": "81 cancer cell lines representing 17 tumor tissue types", "experiment": "Single agent activity, panel of 81 cancer cell lines plus PBMC", "format": "cell-based", "conditions": "for GI50: PBMC"}, "FaDu": {"system": "FaDu", "experiment": "AlamarBlue viability assay", "format": "cell-based, human", "description": "(§3) Compound 1 in combination with etoposide or cisplatin was tested in the following cancer cell lines for inhibition of tumor cells: human lung carcinoma (NCI-H460), human glioblastoma (MO59K and MO59J), and human squamous cell carcinoma pharynx (FaDu). Details of the assay protocol and material utilized are set forth below.\n(§4) Cells were plated in a volume of 180 μl/well in 96-well plates: (FaDu: 1000 cells/well (168 h); NCI-H460 3000 cells/well (72 h) and 1000 cells/well (168 h); MO59J: 5000 cells/well (72 h) and 2000 cells/well (168 h); MO59K: 2000c/well (72 h) and 1000 cells/well (168 h)) and incubated at 37° C. and relevant C02 for 24 h hours. 20 μl per well of medium including serial dilutions of Compound 1 and/or Etoposide or Cisplatin were added to the culture plates and the incubation was continued further for 3 days (72 h) or 7 days (168 h) at 37° C. and relevant CO2. Compound 1 was pre-incubated for 30 min before Etoposide or Cisplatin were added.\n(§5) Cells were plated in 200 μl volume per well (FaDu: 1000 cells/well (168 h); NCI-H460 3000 cells/well (72 h) and 1000 cells/well (168 h); MO59J: 5000 cells/well (72 h) and 2000 cells/well (168 h); MO59K: 2000c/well (72 h) and 1000 cells/well (168 h)). After 24 h incubation at 37° C. Compound 1, Etoposide or Cisplatin were dispensed by using the Digital HP Dispenser D300 (and the included dispensing software). Plates were further incubated for 3 days (72 h) or 7 days (168 h) at 37° C. and relevant CO2.\n(§6) At the end of the compound incubation period 20 μl AlamarBlue reagent was added per well and the 96-well plates were incubated further up to seven hours. Absorption was determined at 540 nm by using Tecan Reader Connect and Magelan 7.\n(§7) 0% effect=cells treated with DMSO; −100% effect=no cells"}, "MO59J (DNA-PK deficient)": {"system": "MO59J (DNA-PK deficient)", "experiment": "AlamarBlue viability assay", "format": "cell-based, human", "conditions": "compound incubation for 168 h", "description": "as §3, §4, §5, §6, §7"}, "NCI-H460": {"system": "NCI-H460", "experiment": "AlamarBlue viability assay", "format": "cell-based, human", "description": "as §3, §4, §5, §6, §7"}, "JIMT1": {"system": "JIMT1", "experiment": "Single agent activity, panel of 81 cancer cell lines plus PBMC", "format": "cell-based", "conditions": "Homo sapiens, JIMT-1"}, "T24": {"system": "T24", "experiment": "cells", "conditions": "Homo sapiens, T-24, read-out: GI50 of etoposide (±Compound 1)", "quoted_text": "(§8) Cell growth and treatment were performed in 96-well microtitre plates CELLSTAR® (Greiner Bio-One, Germany). Cells harvested from exponential phase cultures by trypsinization or by splitting (in the case of cells growing in suspension) were plated in 90 μl of media at optimal seeding densities. The optimal seeding density for each cell line was determined to ensure exponential growth for the duration of the experiment. All cells growing without anticancer agents were sub-confluent by the end of the treatment, as determined by visual inspection.\n(§9) 90 μl of cells, after a 48-hour pre-growth period, were treated by mixing with 10 μl of the compound-containing media (resulting in a final DMSO concentration of 0.1%). The cells were allowed to grow at 37° C. for 72 (or 120) hours.\n(§10) Cells were fixed to the surface by addition of 10% TCA (for adherent growing cells) or 50% TCA (for semi-adherent growing cell or cells growing in suspension). After an hour of incubation at 4° C. plates were washed twice with 200 μl of deionized water and dried. Cells were then stained with 100 μl of 0.04% w/v SRB. […]\n(§11) Using these measurements, cellular responses can be calculated for incomplete inhibition of cell growth (GI), complete inhibition of cell growth (TGI) and net loss of cells (LC) due to compound activity. […] TGI was calculated from Ti=Tz. […] It was calculated as 100×[(Ti−Tz)/Tz]=−50."}, "lung cancer cell lines": {"system": "lung cancer cell lines", "experiment": "cells", "conditions": "read-out: Median etoposide concentration needed to reach GI50", "quoted_text": "Single agent as well as combination treatment growth inhibition effects were measured by ONCOLEAD.\nRelative area above the dose-response curve (relAOC or AOC) were obtained as the area above the dose-response curve in the dose range between 1E-3M and 1E-10M."}, "DLD1": {"system": "DLD1", "experiment": "cells", "conditions": "Homo sapiens, DLD-1, read-out: GI50 of etoposide (±Compound 1)", "quoted_text": "as §8, §9, §10, §11"}, "JEG3": {"system": "JEG3", "experiment": "Single agent activity, panel of 81 cancer cell lines plus PBMC", "format": "cell-based", "conditions": "Homo sapiens, JEG-3, lower end of range"}, "[9]": {"conditions": "IR 10 Gy (5 x 2 Gy) + Compound 1 150 mg/kg po"}, "[10]": {"conditions": "IR 10 Gy (5 x 2 Gy) + Compound 1 150 mg/kg po 10 min prior to each fraction"}},
  "note": "Where two headings read alike, the source gives them in different places.",
  "data": [
    {"compound": "COc1ccc([C@@H](O)c2cc(-c3ncnc4cc(N5CCOCC5)ccc34)c(F)cc2Cl)nn1", "note": "[Compound 1, (S)-[2-chloro-4-fluoro-5-(7-morpholin-4-yl-quinazolin-4-yl)-phenyl]-(6-methoxy-pyridazin-3-yl)-methanol]", "values": [
      {"measurement": "activity in resting PBMC", "setting": "[1]", "value": "No activity"},
      {"measurement": "Enhancement Ratio [combi/IR only]", "setting": "[2]; [9]", "value": 2.6},
      {"measurement": "median time to TV400% Combi", "setting": "[2]; [10]", "value": 45, "unit": "days"},
      {"measurement": "Enhancement Ratio [combi/IR only]", "setting": "[3]; [9]", "value": 2},
      {"measurement": "median time to TV400% Combi", "setting": "[3]; [10]", "value": 132, "unit": "days"},
      {"measurement": "Enhancement Ratio [combi/IR only]", "setting": "[4]; [9]", "value": 1.5},
      {"measurement": "median time to TV400% Combi", "setting": "[4]; [10]", "value": 46, "unit": "days"},
      {"measurement": "Enhancement Ratio [combi/IR only]", "setting": "[5]; [9]", "value": 1.5},
      {"measurement": "median time to TV400% Combi", "setting": "[5]; [10]", "value": 42, "unit": "days"},
      {"measurement": "Enhancement Ratio [combi/IR only]", "setting": "[6]; [9]", "value": 2},
      {"measurement": "median time to TV400% Combi", "setting": "[6]; [10]", "value": 73.5, "unit": "days"},
      {"measurement": "tumor growth suppression", "setting": "[7]; 150 mg/kg, three weeks", "value": "nearly complete growth suppression"},
      {"measurement": "tumor growth inhibition", "setting": "[7]; three week administration", "value": "dose-dependent tumor growth inhibition"},
      {"measurement": "activity range", "setting": "[8]", "value": "more than 20 fold"},
      {"measurement": "GI50", "setting": "[8]; in a set of cell lines, read-out: activity (GI50), lower end of range", "value": 500, "unit": "nM"},
      {"measurement": "GI50", "setting": "[8]; read-out: activity (GI50), upper end of range", "value": "> 10000", "unit": "nM"},
      {"measurement": "inhibition of viability, combination with etoposide", "setting": "FaDu", "value": "enhanced inhibition of viability"},
      {"measurement": "combination effect with Etoposide on viability", "setting": "MO59J (DNA-PK deficient)", "value": "no such combination effect"},
      {"measurement": "combination effect with cisplatin on viability", "setting": "NCI-H460", "value": "No significant combination effect"},
      {"measurement": "inhibition of viability, combination with etoposide", "setting": "NCI-H460", "value": "enhanced inhibition of viability"}
    ]},
    {"compound": "COc1cc([C@@H]2c3cc4c(cc3[C@@H](O[C@@H]3O[C@@H]5CO[C@@H](C)O[C@H]5[C@H](O)[C@H]3O)[C@H]3COC(=O)[C@H]23)OCO4)cc(OC)c1O", "note": "[Etoposide]", "values": [
      {"measurement": "activity in resting PBMC", "setting": "[1]", "value": "no activity"},
      {"measurement": "GI50", "setting": "JIMT1", "value": "> 10000", "unit": "nM"},
      {"measurement": "GI50", "setting": "T24", "value": 2530, "unit": "nM"},
      {"measurement": "GI50", "setting": "lung cancer cell lines", "value": 320, "unit": "nM"},
      {"measurement": "activity range", "setting": "[8]", "value": "more than 1000 fold"},
      {"measurement": "GI50", "setting": "DLD1", "value": 1350, "unit": "nM"},
      {"measurement": "GI50", "setting": "JEG3", "value": 30, "unit": "nM"}
    ]}
  ]
}
